Where “and” joins values, the source holds several entries; their conditions need not be identical. Equal entries are not always repeated. Toxic doses and inconclusive results are not listed. How the source made its calls: active means survival T/C of 150% or more; inactive means T/C below 125% in these data.
System: P388 leukemia ip, CD2F1 mice, survival T/C
Test: NCI In Vivo Anticancer Drug Screen. Data for tumor model P388 Leukemia (intraperitoneal) in CD2F1 (CDF1) mice
Conditions: endpoint: median survival time, higher = longer survival
Outline: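 Mice carrying the transplanted tumor received test compound or vehicle. Survival was recorded in each group, and the value is the treated-group measurement divided by that of the vehicle-treated control group.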

[1] = dose: 50.0 mg/kg/injection, schedule: Q01DX005 (ip), vehicle: Klucel (hydroxypropylcellulose) (HPC)
[2] = dose: 100.0 mg/kg/injection, schedule: Q01DX005 (ip), vehicle: Klucel (hydroxypropylcellulose) (HPC)
[3] = dose: 200.0 mg/kg/injection, schedule: Q01DX005 (ip), vehicle: Klucel (hydroxypropylcellulose) (HPC)
[4] = dose: 50.0 mg/kg/injection, schedule: Q01DX005 (ip), vehicle: saline with Tween-80
[5] = dose: 100.0 mg/kg/injection, schedule: Q01DX005 (ip), vehicle: saline with Tween-80
[6] = dose: 60.0 mg/kg/injection, schedule: Q01DX005 (ip), vehicle: Klucel (hydroxypropylcellulose) (HPC)
[7] = dose: 120.0 mg/kg/injection, schedule: Q01DX005 (ip), vehicle: Klucel (hydroxypropylcellulose) (HPC)
[8] = dose: 240.0 mg/kg/injection, schedule: Q01DX005 (ip), vehicle: Klucel (hydroxypropylcellulose) (HPC)

Measured: T/C

CCOC(=O)CCC(NC(=O)c1ccc(CBr)cc1)C(=O)OCC (stereo not drawn)
inactive: dose: 12.5 mg/kg/injection, schedule: Q01DX009 (ip), vehicle: distilled water + Tween-80 102 % of control | dose: 25.0 mg/kg/injection, schedule: Q01DX009 (ip), vehicle: distilled water + Tween-80 111 % of control | dose: 50.0 mg/kg/injection, schedule: Q01DX009 (ip), vehicle: distilled water + Tween-80 107 % of control | dose: 100.0 mg/kg/injection, schedule: Q01DX009 (ip), vehicle: distilled water + Tween-80 100 % of control

Cc1ccc2c(c1)C(=O)CC=C(C(=O)O)N2
inactive: dose: 100.0 mg/kg/injection, schedule: Q01DX009 (ip), vehicle: Klucel (hydroxypropylcellulose) (HPC) 98 % of control | dose: 200.0 mg/kg/injection, schedule: Q01DX009 (ip), vehicle: Klucel (hydroxypropylcellulose) (HPC) 104 % of control | dose: 400.0 mg/kg/injection, schedule: Q01DX009 (ip), vehicle: Klucel (hydroxypropylcellulose) (HPC) 111 % of control | dose: 600.0 mg/kg/injection, schedule: Q01DX009 (ip), vehicle: Klucel (hydroxypropylcellulose) (HPC) 89 % of control

[Cu+2].[NH-]CC1CCCC[N-]1.[NH-]CC1CCCC[N-]1.[O-][Cl+3]([O-])([O-])O (stereo not drawn)
inactive: dose: 6.25 mg/kg/injection, schedule: Q01DX009 (ip), vehicle: saline with Tween-80 103 % of control | dose: 12.5 mg/kg/injection, schedule: Q01DX009 (ip), vehicle: saline with Tween-80 100 % of control and 96 % of control | dose: 25.0 mg/kg/injection, schedule: Q01DX009 (ip), vehicle: saline with Tween-80 107 % of control

O=C(O)C(CO)Nc1ncnc2nc[nH]c12 (stereo not drawn)
inactive: [1] 106 % of control | [2] 109 % of control | [3] 109 % of control

CSc1cccc(NC(=O)Nc2nc3c(C)cccc3s2)c1
inactive: [1] 96 % of control | [2] 95 % of control | [3] 90 % of control

OC(CO/N=C1\CCc2ccccc21)CN1CCOCC1 (stereo not drawn)
inactive: dose: 50.0 mg/kg/injection, schedule: Q01DX005 (ip), vehicle: saline 105 % of control | dose: 100.0 mg/kg/injection, schedule: Q01DX005 (ip), vehicle: saline 104 % of control | dose: 200.0 mg/kg/injection, schedule: Q01DX005 (ip), vehicle: saline 104 % of control

CC1=CC23C(=O)[C@@H](C=C(COC(=O)c4ccccc4)[C@@H](O)[C@]2(O)[C@H]1OC(=O)c1ccccc1)[C@H]1[C@@H](C[C@H]3C)C1(C)C
inactive: dose: 12.5 micrograms/kg/injection, schedule: Q01DX009 (ip), vehicle: saline with Tween-80 113 % of control | dose: 25.0 micrograms/kg/injection, schedule: Q01DX009 (ip), vehicle: saline with Tween-80 102 % of control | dose: 50.0 micrograms/kg/injection, schedule: Q01DX009 (ip), vehicle: saline with Tween-80 106 % of control | dose: 100.0 micrograms/kg/injection, schedule: Q01DX009 (ip), vehicle: saline with Tween-80 119 % of control | dose: 200.0 micrograms/kg/injection, schedule: Q01DX009 (ip), vehicle: saline with Tween-80 113 % of control | dose: 281.0 micrograms/kg/injection, schedule: Q01DX009 (ip), vehicle: saline + alcohol 108 % of control | dose: 468.0 micrograms/kg/injection, schedule: Q01DX009 (ip), vehicle: saline + alcohol 89 % of control | dose: 780.0 micrograms/kg/injection, schedule: Q01DX009 (ip), vehicle: saline + alcohol 89 % of control

NNC(N)=NC1CCCCC1
inactive: [1] 95 % of control | [2] 97 % of control

Cc1ccc(C23c4ccccc4CCN2C(=O)C3N)cc1 (stereo not drawn)
inactive: [1] 99 % of control | [2] 106 % of control | [3] 93 % of control

CC(=O)O[C@@H]1C(C(=O)[C@@H](C)C(C)C)OCOC1C1CC(=O)NC(=O)C1 (stereo partly drawn)
inactive: dose: 0.01 mg/kg/injection, schedule: Q01DX009 (ip), vehicle: distilled water + alcohol 100 % of control | dose: 0.03 mg/kg/injection, schedule: Q01DX009 (ip), vehicle: distilled water + alcohol 100 % of control | dose: 0.06 mg/kg/injection, schedule: Q01DX009 (ip), vehicle: distilled water + alcohol 93 % of control | dose: 0.12 mg/kg/injection, schedule: Q01DX009 (ip), vehicle: distilled water + alcohol 98 % of control

CCCC(=O)C1C(c2ccccc2)CC(=O)C(CC)C1c1ccccc1 (stereo not drawn)
inactive: dose: 12.5 mg/kg/injection, schedule: Q01DX005 (ip), vehicle: saline with Tween-80 90 % of control | dose: 25.0 mg/kg/injection, schedule: Q01DX005 (ip), vehicle: saline with Tween-80 95 % of control | [4] 88 % of control and 90 % of control | dose: 200.0 mg/kg/injection, schedule: Q01DX005 (ip), vehicle: saline with Tween-80 88 % of control

Cc1ccc2c(C)cc(=O)oc2c1
inactive: dose: 100.0 mg/kg/injection, schedule: Q04DX003 (ip), vehicle: saline 102 % of control | dose: 200.0 mg/kg/injection, schedule: Q04DX003 (ip), vehicle: saline 105 % of control | dose: 400.0 mg/kg/injection, schedule: Q04DX003 (ip), vehicle: saline 108 % of control

CCC(=O)NC1=CCC(C(C)(C)C)CC1 (stereo not drawn)
inactive: [4] 102 % of control | [5] 102 % of control

COc1cccc(C(=O)C(CN(C)C)CN(C)C)c1
inactive: dose: 3.12 mg/kg/injection, schedule: Q01DX009 (ip), vehicle: saline 100 % of control and 105 % of control | dose: 3.13 mg/kg/injection, schedule: Q01DX009 (ip), vehicle: saline 106 % of control | dose: 6.25 mg/kg/injection, schedule: Q01DX009 (ip), vehicle: saline 103 % of control and 115 % of control and 97 % of control | dose: 12.5 mg/kg/injection, schedule: Q01DX009 (ip), vehicle: saline 108 % of control and 112 % of control and 123 % of control | dose: 25.0 mg/kg/injection, schedule: Q01DX009 (ip), vehicle: saline 103 % of control and 123 % of control

OC1COC(O)(CNCCc2c[nH]c3ccc(OCc4ccccc4)cc23)C(O)C1O (stereo not drawn)
inactive: [6] 101 % of control | [7] 99 % of control | [8] 87 % of control

C1CCC2(CC1)SC1(CCCCC1)SC1(CCCCC1)S2
inactive: dose: 100.0 mg/kg/injection, schedule: Q04DX003 (ip), vehicle: other 100 % of control | dose: 200.0 mg/kg/injection, schedule: Q04DX003 (ip), vehicle: other 90 % of control | dose: 400.0 mg/kg/injection, schedule: Q04DX003 (ip), vehicle: other 95 % of control

C=CCn1cc2c3c(cccc31)C1CC(C)CN(C)C1C2 (stereo not drawn)
inactive: [4] 99 % of control | [5] 111 % of control

Cc1ccccc1C1N=C2Oc3ccccc3C=C2C(=O)N1 (stereo not drawn)
inactive: dose: 12.5 mg/kg/injection, schedule: Q01DX005 (ip), vehicle: Klucel (hydroxypropylcellulose) (HPC) 100 % of control and 102 % of control and 98 % of control | dose: 25.0 mg/kg/injection, schedule: Q01DX005 (ip), vehicle: Klucel (hydroxypropylcellulose) (HPC) 93 % of control

NC(CS)=NCC12CC3CC(CC(C3)C1)C2
inactive: dose: 7.5 mg/kg/injection, schedule: Q01DX005 (ip), vehicle: saline with Tween-80 100 % of control | dose: 15.0 mg/kg/injection, schedule: Q01DX005 (ip), vehicle: saline with Tween-80 100 % of control | dose: 30.0 mg/kg/injection, schedule: Q01DX005 (ip), vehicle: saline with Tween-80 115 % of control

COc1cc(C[C@@H]([C@@H](CO)Cc2ccc3c(c2)OCO3)[C@H](O)CO)cc(OC)c1OC
inactive: dose: 6.25 mg/kg/injection, schedule: Q04DX002 (ip), vehicle: acetone 103 % of control | dose: 12.5 mg/kg/injection, schedule: Q04DX002 (ip), vehicle: acetone 100 % of control | dose: 25.0 mg/kg/injection, schedule: Q04DX002 (ip), vehicle: acetone 100 % of control

O/N=C/C(=Nc1ccc2ccccc2c1)NO
inactive: [6] 102 % of control | [7] 98 % of control | [8] 98 % of control

COc1ccc2c(c1)Sc1c(Cl)c3c(c(Cl)c1=N2)Sc1cc(OC)ccc1N=3
inactive: dose: 100.0 mg/kg/injection, schedule: Q04DX002 (ip), vehicle: saline with Tween-80 102 % of control | dose: 200.0 mg/kg/injection, schedule: Q04DX002 (ip), vehicle: saline with Tween-80 112 % of control | dose: 400.0 mg/kg/injection, schedule: Q04DX002 (ip), vehicle: saline with Tween-80 118 % of control

Reference: PubChem BioAssay AID330 (DTP/NCI, 2004)
